# Source: patent US20210310040A1, “SUSCEPTIBILITY AND RESISTANCE OF MICROORGANISMS” (priority 2017, published 2021)
# Columns and labels:
# [1] = test system: K. pneumoniae IS-007; assay: Colorimetric sensor array susceptibility test on solid growth media; assay type: cell-based, Klebsiella pneumoniae
# Source text: (§1) To detect and identify a microorganism by species and/or strain, a sample including the microorganism is placed in a container including culture medium and a colorimetric array, and the temporal response of the sensors to the metabolic products of the microorganism is monitored. Susceptibility can be assessed by inoculating a growth medium including a substance (e.g., an antibiotic) with a microorganism and monitoring the response of the sensors while also monitoring the response of a control (e.g., no antibiotic).
# (§2) FIG. 8 depicts an embodiment of a container 800 configured for use to assess a susceptibility or resistance of microorganisms. Container 800 includes base 802 and lid 804, with wells 806 positioned in base 802 opposite colorimetric sensor arrays 808 on lid 804. Microorganisms may be placed in contact with growth medium (e.g., a solid or liquid growth medium) in wells 806. A substance (e.g., a drug such as an antibiotic) may be added to the growth medium. In one example, rows and columns of wells 802 in container 800 may be used for different microorganisms, different substances (e.g., drugs including antibiotics that may potentially kill the microorganisms), and/or different concentrations of substances. After samples are loaded on wells 802, a lid 804 may be positioned over base 802, such that each colorimetric sensor array 808 is proximate a well 806 and in gaseous (or liquid) communication. In other embodiments, various other configurations could be utilized to bring the gas and volatile organic compounds emitted from the sample into gaseous proximity of the sensor array 808 at sufficient gaseous concentrations. The response of the sensor arrays 808 recorded by various detectors may then be assessed in order to determine a susceptibility or resistance of the various antibiotics or substances cultured with the sample. Susceptibility may be assessed via temporal response of the sensors in colorimetric sensor arrays 808 as described herein. Container 800 can be positioned in an apparatus (e.g., apparatus 700) for automated assessment of susceptibility and/or resistance.
# (§3) FIGS. 9A-B show susceptibility of K. pneumoniae strains obtained in 6 hours in Muller-Hinton agar (x axis indicates time in hours). Susceptibility is indicated by a lack of metabolic products compared to controls (no antibiotic). […] FIGS. 10A-C show susceptibility of S. aureus strains obtained in 6 hours in Muller-Hinton agar.
# (§4) In another susceptibility test, three strains of K. pneumoniae were inoculated onto the solid growth media with no antibiotic (control), piperacillin/tazobactam (PIP/TAZO) at concentrations of 16 ug/ml and 4 ug/ml, Cefepime at 8 ug/ml and Meropenem at 1 ug/ml. […] K. pneumoniae IS-020 was susceptible to all 3 antibiotics in agreement with known susceptibility information that this strain is susceptible to PIP/Tazo at <4 ug/ml, Cefepime <1 ug/ml and Meropenem at <0.25 ug/ml). K. pneumoniae IS-133 is known to be resistant at concentrations of PIP/Tazo below 128 ug/ml, Cefepime below 64 ug/ml and Meropenem below 16 ug/ml.
# [2] = test system: K. pneumoniae IS-020; assay: as above; assay type: cell-based, Klebsiella pneumoniae
# Source text: as §1, §2, §3, §4
# [3] = test system: K. pneumoniae IS-020; conditions: cited from earlier work
# [4] = test system: K. pneumoniae IS-133; conditions: cited from earlier work
# [5] = test system: S. aureus IS-120; assay: Colorimetric sensor array susceptibility test on solid growth media; assay type: cell-based, Staphylococcus aureus
# Source text: as §1, §2, §3
# (§5) In another susceptibility test, three strains of S. aureus were inoculated onto the solid growth media. […] S. aureus IS-124 was susceptible to both antibiotics in agreement with known susceptibility information that this strain is susceptible to Oxacillin and Vancomycin.
# [6] = test system: S. aureus IS-123; assay: as above; assay type: cell-based, Staphylococcus aureus
# Source text: as §1, §2, §3, §5
# [7] = test system: S. aureus IS-124; assay: as above; assay type: cell-based, Staphylococcus aureus
# Source text: as §1, §2, §3, §5
# [8] = test system: S. aureus IS-120; conditions: cited from earlier work
# [9] = test system: S. aureus IS-123; conditions: cited from earlier work
# [10] = test system: S. aureus IS-124; conditions: cited from earlier work
# [11] = test system: K. pneumoniae IS-007; conditions: cited from earlier work
# [12] = test system: S. aureus 29213 (MSSA); assay: Susceptibility by perturbation of VOCs, single indicator response with antibiotic; assay type: cell-based; conditions: Staphylococcus aureus, observed in about 2.5 hours, FIG. 52
# Source text: (§6) However, it has been discovered that detection of changes in VOC output of microorganism—in addition to changes in the number of microorganisms—can be detected by the sensor 808 after application of antibiotics. The change in the sensor 808 response can also be correlated to susceptibility of the microorganism to antibiotics. For instance, it has been discovered that after application of antibiotics, certain sensors decrease or show less response at certain concentrations. This change in VOC output can be correlated to the resistance or susceptibility of the microorganisms in the sample to the antibiotic or other substance introduced. In other examples, a change in compound output that remain in solution (not limited to VOCs) may be correlated to a susceptibility of the microorganisms.
# FIG. 52 illustrates two graphs showing the MIC observed for two different antibiotics to S. aureus 29213 (MSSA). The graph on the left portion of FIG. 52 illustrates a MIC of 1 μg/ml to Cefoxitin and the graph on the right illustrations a MIC of 0.5 μg/ml of Vancomycin.
# [13] = test system: E. coli (AR85); assay: as above; assay type: cell-based; conditions: Escherichia coli; observed after 2.5 hours, FIG. 50; read-out: minimum inhibitory concentration (MIC)
# Source text: as §6
# FIG. 50 illustrates a graph showing the sensor response of a single sensor 808, dye or indicator to a sample of E. coli incubated in the presence of different concentrations of Ertapenem—a Carbapenem family of antibiotic. As illustrated, the single indicator can not only determine whether this strain of E. coli (AR85) is resistant to Ertapenem, but also the minimum inhibitory concentration (“MIC”). As illustrated, the minimum inhibitory concentration of 2 μg/ml is observed only after 2.5 hours. […]
# [14] = test system: ATCC 25922 (Pan-S); assay: Susceptibility by perturbation of VOCs, single indicator response after addition of antibiotic; assay type: cell-based, E. coli
# Source text: as §6
# For instance, FIG. 48 illustrates an example of the response of the red spectrum of a single indicator (e.g. an indicator containing ZnTPP and Bromophenol Blue) on the sensor 808 in the presence of a sample. As shown, the antibiotic is added at 0.5 hours—in the example of the susceptible microorganism ATCC 25922 (Pan-S), the indicator red component drops off dramatically. The results can be noticed almost a half an hour to an hour after adding the antibiotic—far faster than to notice a general decline in emission of VOCs due to cell death or lack of growth of microorganisms. […]
# [15] = test system: E. coli AR 84 (ESBL); assay: as above; assay type: cell-based; conditions: at all concentrations of Ampicillin
# Source text: as §6
# In the resistant strain illustrated in FIG. 48, AR 84 (ESBL), the antibiotic is added at the same time, but the red component of the sensor response continues to increase over time. […] Accordingly, in this embodiment, the sensor 808 response of a single indicator may be monitored. Changes in the slope of the indicator response over time, or decreases in the indicator may be monitored to determine when there is potentially a susceptible organism. […]
# [16] = PIP/TAZO at 16 ug/ml and 4 ug/ml
compound,measurement,setting,value
C[C@@H](O)[C@H]1C(=O)N2C(C(=O)O)=C(S[C@@H]3CN[C@H](C(=O)N(C)C)C3)[C@H](C)[C@H]12 [Meropenem],susceptibility or resistance by sensor response compared to control,[1]; Meropenem at 1 ug/ml,susceptibility
same,susceptibility or resistance by sensor response compared to control,[2]; Meropenem at 1 ug/ml,susceptible
same,known susceptibility information: concentration at which strain is susceptible,[3],< 0.25 µg/mL
same,known to be resistant at concentrations below,[4],below 16 ug/ml
CN[C@H](CC(C)C)C(=O)N[C@H]1C(=O)N[C@@H](CC(N)=O)C(=O)N[C@H]2C(=O)N[C@H]3C(=O)N[C@H](C(=O)N[C@H](C(=O)O)c4cc(O)cc(O)c4-c4cc3ccc4O)[C@H](O)c3ccc(c(Cl)c3)Oc3cc2cc(c3O[C@@H]2O[C@H](CO)[C@@H](O)[C@H](O)[C@H]2O[C@H]2C[C@](C)(N)[C@H](O)[C@H](C)O2)Oc2ccc(cc2Cl)[C@H]1O [Vancomycin],susceptibility or resistance by sensor response,[5]; Vancomycin at 1-2 ug/ml,susceptibility
same,susceptibility or resistance by sensor response,[6]; Vancomycin at 1-2 ug/ml,susceptibility
same,susceptibility or resistance by sensor response,[7],susceptible
same,known susceptibility information: susceptible or resistant,[8],susceptible
same,known susceptibility information: susceptible or resistant,[9],susceptible
same,known susceptibility information: susceptible or resistant,[10],susceptible
CO/N=C(\C(=O)N[C@@H]1C(=O)N2C(C(=O)[O-])=C(C[N+]3(C)CCCC3)CS[C@H]12)c1csc(N)n1 [Cefepime],susceptibility or resistance by sensor response compared to control,[1]; Cefepime at 8 ug/ml,resistance
same,susceptibility or resistance by sensor response compared to control,[2]; Cefepime at 8 ug/ml,susceptible
same,known susceptibility information: concentration at which strain is susceptible,[11],< 0.25 µg/mL
same,known susceptibility information: concentration below which strain is resistant,[11],below 64 ug/ml
same,known susceptibility information: concentration at which strain is susceptible,[3],< 1 µg/mL
same,known to be resistant at concentrations below,[4],below 64 ug/ml
piperacillin/tazobactam [PIP/Tazo],susceptibility or resistance by sensor response compared to control,[1]; [16],susceptibility
same,susceptibility or resistance by sensor response compared to control,[2]; [16],susceptible
same,known susceptibility information: concentration at which strain is susceptible,[11],4 µg/mL
same,known susceptibility information: concentration at which strain is susceptible,[3],< 4 µg/mL
same,known to be resistant at concentrations below,[4],below 128 ug/ml
CO[C@@]1(NC(=O)Cc2cccs2)C(=O)N2C(C(=O)O)=C(COC(N)=O)CS[C@@H]21 [Cefoxitin],MIC,[12],1 µg/mL
C[C@@H](O)[C@H]1C(=O)N2C(C(=O)O)=C(S[C@@H]3CN[C@H](C(=O)Nc4cccc(C(=O)O)c4)C3)[C@H](C)[C@H]12 [Ertapenem],MIC,[13],2 µg/mL
CC1(C)S[C@@H]2[C@H](NC(=O)[C@H](N)c3ccccc3)C(=O)N2[C@H]1C(=O)O [Ampicillin],sensor response of single indicator after addition of antibiotic (FIG. 49),[14]; Ampicillin at 0.5 mg/ml and 1.0 mg/ml,same response
same,MIC,"[14]; Escherichia coli, ATCC25922, single sensor or indicator, FIG. 53",1 to 8 µg/mL
same,sensor response of single indicator after addition of antibiotic (FIG. 49),[15],decline in sensor response
Cc1onc(-c2ccccc2)c1C(=O)N[C@@H]1C(=O)N2[C@@H]1SC(C)(C)[C@@H]2C(=O)O [Oxacillin],susceptibility or resistance by sensor response,[5]; Oxacillin at 2 ug/ml,resistance
same,susceptibility or resistance by sensor response,[6]; Oxacillin at 2 ug/ml,resistance
same,susceptibility or resistance by sensor response,[7],susceptible
same,known susceptibility information: concentration below which strain is resistant,[8],below 4 ug/ml
same,known susceptibility information: concentration below which strain is resistant,[9],below 4 ug/ml
same,known susceptibility information: susceptible or resistant,[10],susceptible
